In ChEMBL document CHEMBL3045060, “Synthesis of some urea and thiourea derivatives of naphtha[1,2-d]thiazol-2-amine as anti-Parkinsonian agents that cause neuroprotection against haloperidol-induced oxidative stress in mice” (2009) one finds Time and Activity data, which are given here for 7 compounds.

Common to all, as to type: functional
Assay [1] has as its system Mus musculus. In words: Neuroprotective activity in haloperidol-induced catalepsy Mus musculus Swiss albino (mouse) model assessed as mean descent time at 100 mg/kg, po administered 30 min before haloperidol challenge measured at 30 min post challenge.
Assay [2] has as its system Mus musculus. In words: Neuroprotective activity in haloperidol-induced catalepsy Mus musculus Swiss albino (mouse) model assessed as mean descent time at 100 mg/kg, po administered 30 min before haloperidol challenge measured at 60 min post challenge.
Assay [3] relates to Mus musculus. In words: Neuroprotective activity in haloperidol-induced catalepsy Mus musculus Swiss albino (mouse) model assessed as inhibition of MDA equivalent TBARS release per mg protein in brain homogenate at 100 mg/kg, po administered 30 min before haloperidol challenge measured after 4 hr post challenge by spectrophotometry (reference value: 1.157 +/- 0.06 nmol/mg protein).

Assay [4] relates to Mus musculus. Kind of assay: Neuroprotective activity in Mus musculus Swiss albino (mouse) model assessed as reduction in haloperidol-induced catalepsy at 100 mg/kg, ip administered 30 min before haloperidol challenge measured for 30 to 180 min. Details: scale not given: the % may be the effect or the level left. Particulars: route intraperitoneal.
For assay [5], the system named is Mus musculus. In words: Neuroprotective activity in haloperidol-induced catalepsy Mus musculus Swiss albino (mouse) model assessed as mean descent time at 100 mg/kg, po administered 30 min before haloperidol challenge measured at 120 min post challenge.
Assay [6] concerns Mus musculus. In words: Neuroprotective activity in haloperidol-induced catalepsy Mus musculus Swiss albino (mouse) model assessed as mean descent time at 100 mg/kg, po administered 30 min before haloperidol challenge measured at 90 min post challenge.
For assay [7], the system named is Mus musculus. In words: Neuroprotective activity in haloperidol-induced catalepsy Mus musculus Swiss albino (mouse) model assessed as GSH level per gram of brain tissue at 100 mg/kg, po administered 30 min before haloperidol challenge measured after 4 hr post challenge by spectrophotometry (reference value: 23.45 +/- 0.23 ug/g tissue).
Assay [8] concerns Mus musculus. Kind of assay: Neuroprotective activity in haloperidol-induced catalepsy Mus musculus Swiss albino (mouse) model assessed as mean descent time at 100 mg/kg, po administered 30 min before haloperidol challenge measured at 180 min post challenge.
Assay [9] has as its system Mus musculus. Kind of assay: Neuroprotective activity in haloperidol-induced catalepsy Mus musculus Swiss albino (mouse) model assessed as mean cumulative descent time at 100 mg/kg, po administered 30 min before haloperidol challenge (reference value: 33 +/- 1.34 min).
In assay [10] the test system is Mus musculus. Kind of assay: Neuroprotective activity in haloperidol-induced catalepsy Mus musculus Swiss albino (mouse) model assessed as mean descent time at 100 mg/kg, po administered 30 min before haloperidol challenge measured at 150 min post challenge.
For assay [11], the system named is Mus musculus. Kind of assay: Neuroprotective activity in haloperidol-induced catalepsy Mus musculus Swiss albino (mouse) model assessed as GSH-Px activity per mg protein in brain homogenate at 100 mg/kg, po administered 30 min before haloperidol challenge measured after 4 hr post challenge by spectrophotometry (reference value: 2.129 +/- 0.06 U/mg protein).
The subject of assay [12] is Mus musculus. Kind of assay: Neuroprotective activity in haloperidol-induced catalepsy Mus musculus Swiss albino (mouse) model assessed as Cu-Zn-SOD activity per gram protein in brain homogenate at 100 mg/kg, po administered 30 min before haloperidol challenge measured after 4 hr post challenge by NBT reduction assay (reference value: 1.794 +/- 0.03 U/g protein).

As to `COc1ccc(NC(=O)Nc2nc3c(ccc4ccccc43)s2)c(OC)c1`, the Time with Mus musculus [1] was 32 s; in the assay on Mus musculus [2], 35 s; in the assay with Mus musculus [5], 68 s; with Mus musculus [6], 39 s; in the assay on Mus musculus [8] it was 121 s; in the assay on Mus musculus [9], 6.92 min. Besides, in the assay on Mus musculus [10], the Time was determined as 120 s. In addition, the Activity with Mus musculus [3] was 2.706 nmol/mg protein; with Mus musculus [4] it was 75%; with Mus musculus [7], 13.6 µg/g; in the assay with Mus musculus [11], 1.61 U/mg; in the assay with Mus musculus [12], 1.469 U/g protein.
For `O=[N+]([O-])c1ccccc1NC(=S)Nc1nc2c(ccc3ccccc32)s1`, the Time with Mus musculus [1] came to 20 s; with Mus musculus [2], 36 s; in the assay on Mus musculus [5], 88 s; in the assay with Mus musculus [6], 71 s; in the assay with Mus musculus [8], 122 s; with Mus musculus [9] it was 7.43 min. The Time in the assay with Mus musculus [10] turned out to be 109 s. Further, the Activity in the assay on Mus musculus [3] stood at 3.226 nmol/mg protein; in the assay with Mus musculus [4], 72.97%; in the assay with Mus musculus [7], 12.5 µg/g; in the assay on Mus musculus [11], 1.77 U/mg; in the assay on Mus musculus [12] it was 1.398 U/g protein.
With `COc1ccccc1NC(=S)Nc1nc2c(ccc3ccccc32)s1`, the Time in the assay with Mus musculus [1] was 19 s; in the assay with Mus musculus [2] it was 44 s; in the assay with Mus musculus [5] it was 87 s; with Mus musculus [6], 65 s; with Mus musculus [8], 95 s; with Mus musculus [9], 6.8 min. In the assay with Mus musculus [10], the Time came out at 98 s. Besides, the Activity in the assay on Mus musculus [3] came out at 2.045 nmol/mg protein; in the assay with Mus musculus [4], 75.46%; in the assay with Mus musculus [7], 13.1 µg/g; in the assay with Mus musculus [11] it was 2.1 U/mg; with Mus musculus [12], 1.684 U/g protein.
`O=C(CCCN1CCC(O)(c2ccc(Cl)cc2)CC1)c1ccc(F)cc1` [HALOPERIDOL]: the Time is 176 s in the assay on Mus musculus [1]; 217 s in the assay with Mus musculus [2]; 300 s in the assay with Mus musculus [5]; 268 s in the assay with Mus musculus [6]; 300 s in the assay with Mus musculus [8]; 26 min in the assay on Mus musculus [9]. Moreover, in the assay on Mus musculus [10], the Time came to 300 s. For the same compound, the figures for the Activity in the assay with Mus musculus [7] and in the assay with Mus musculus [11] were 6.85 µg/g and 1.14 U/mg, respectively.
With `COc1ccccc1NC(=O)Nc1nc2c(ccc3ccccc32)s1`, the Time with Mus musculus [1] came to 11 s; in the assay on Mus musculus [2], 28 s; in the assay with Mus musculus [5], 87 s; with Mus musculus [6], 43 s; in the assay on Mus musculus [8], 108 s; in the assay on Mus musculus [9], 6.43 min. Further, the Time with Mus musculus [10] came out at 109 s. For the same compound, the Activity in the assay with Mus musculus [3] turned out to be 2.504 nmol/mg protein; with Mus musculus [4] it was 76.9%; in the assay with Mus musculus [7], 16.8 µg/g; in the assay with Mus musculus [11], 1.83 U/mg; in the assay with Mus musculus [12], 1.622 U/g protein.
As to `O=[N+]([O-])c1ccc(NC(=S)Nc2nc3c(ccc4ccccc43)s2)cc1`, the Time with Mus musculus [1] worked out at 77 s; in the assay on Mus musculus [2], 178 s; with Mus musculus [5], 201 s; with Mus musculus [6], 199 s; in the assay with Mus musculus [8] it was 208 s; in the assay with Mus musculus [9] it was 17.8 min. Further, the Time with Mus musculus [10] is 207 s. Moreover, the Activity in the assay on Mus musculus [4] is given as 32.13%.
Regarding `S=C(Nc1ccccc1)Nc1nc2c(ccc3ccccc32)s1`, the Time in the assay on Mus musculus [1] came out at 65 s; with Mus musculus [2], 129 s; with Mus musculus [5], 178 s; with Mus musculus [6] it was 151 s; in the assay with Mus musculus [8], 182 s; in the assay on Mus musculus [9], 14.7 min. Also, in the assay with Mus musculus [10], the Time turned out to be 174 s. Also, in the assay with Mus musculus [4], the Activity is listed as 44.63%.
